Measurements published in the NIST ThermoML archive (doi:10.1021/acs.jced.8b00427).

Settings: Liquid, Frequency=4 MHz, Pulse-echo method

FC(F)(F)/C=C/Cl [(E)-1-chloro-3,3,3-trifluoroprop-1-ene]
Settings	speed of sound [m/s]
273.14 K, 30070 kPa	936.9
273.15 K, 5030 kPa	815.43
273.15 K, 20150 kPa	892.92
273.15 K, 25090 kPa	915.36
273.16 K, 190 kPa	786.78
273.16 K, 1000 kPa	791.78
273.16 K, 10050 kPa	842.75
273.16 K, 35030 kPa	957.33
283.14 K, 5170 kPa	778.28
283.14 K, 10020 kPa	806.46
283.14 K, 24930 kPa	882.24
283.14 K, 30260 kPa	906.25
283.15 K, 190 kPa	746.74
283.16 K, 980 kPa	752.01
283.16 K, 20000 kPa	858.64
283.16 K, 34920 kPa	926.3
293.15 K, 170 kPa	707.09
293.15 K, 9990 kPa	771.05
293.15 K, 20000 kPa	826.3
293.15 K, 35000 kPa	896.92
293.16 K, 1030 kPa	713.25
293.16 K, 5090 kPa	740.63
293.16 K, 30100 kPa	875.12
313.14 K, 270 kPa	628.5
313.15 K, 5010 kPa	666.72
313.15 K, 10000 kPa	702.15
313.15 K, 19990 kPa	763.58
313.15 K, 30050 kPa	816.73
313.15 K, 34920 kPa	840.09
313.16 K, 1180 kPa	636.05
333.14 K, 5010 kPa	594.52
333.14 K, 9980 kPa	634.9
333.15 K, 19990 kPa	704.25
333.15 K, 29970 kPa	761.64
333.15 K, 35060 kPa	787.99
353.14 K, 10010 kPa	571.03
353.14 K, 15090 kPa	612.03
353.14 K, 20150 kPa	648.34
353.15 K, 24990 kPa	679.91
353.15 K, 30000 kPa	710.32
353.15 K, 35040 kPa	738.23
